Experimental data from publication PMC12586182 (Frontiers in Oncology, 2025).

Key:
Assay in all cases: Cell viability assay (ATPlite)
Format in all cases: cell-based
[1] = test system: A-388; conditions: Homo sapiens; A-388 cell line, 72 hours incubation
Procedure, shortened: (§1)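 Cells grew 24 h, then received 9-point √10-fold compound series in duplicate (0.4% DMSO final) for 72 h. ATP content was read by ATPlite luminescence and normalized to vehicle controls as % viability. IC50 came from a four-parameter logistic fit; curves with F-value above 1.5 were invalidated, with IC50 then set at the top concentration.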

[2] = test system: CCF-STTG1; conditions: Homo sapiens; CCF-STTG1 cell line, 72 hours incubation
Procedure, shortened: as §1

[3] = test system: CTV-1; conditions: Homo sapiens; CTV-1 cell line, 72 hours incubation
Procedure, shortened: as §1

[4] = test system: DU4475; conditions: Homo sapiens, DU-4475; DU4475 cell line, 72 hours incubation
Procedure, shortened: as §1

[5] = test system: DoTc2 4510; conditions: Homo sapiens; DoTc2 4510 cell line, 72 hours incubation
Procedure, shortened: as §1

[6] = test system: H9; conditions: Homo sapiens; H9 cell line, 72 hours incubation
Procedure, shortened: as §1

[7] = test system: HCC1954; conditions: Homo sapiens; HCC1954 cell line, 72 hours incubation
Procedure, shortened: as §1

[8] = test system: HEC-251; conditions: Homo sapiens; HEC-251 cell line, 72 hours incubation
Procedure, shortened: as §1

[9] = test system: HT-1080; conditions: Homo sapiens; HT-1080 cell line, 72 hours incubation
Procedure, shortened: as §1

[10] = test system: HT-29; conditions: Homo sapiens; HT-29 cell line, 72 hours incubation
Procedure, shortened: as §1

[11] = test system: Hs 746.T; conditions: Homo sapiens, Hs746T; Hs 746.T cell line, 72 hours incubation
Procedure, shortened: as §1

[12] = test system: KLE; conditions: Homo sapiens; KLE cell line, 72 hours incubation
Procedure, shortened: as §1

[13] = test system: LC-2/ad; conditions: Homo sapiens; LC-2/ad cell line, 72 hours incubation
Procedure, shortened: as §1

[14] = test system: LS174T; conditions: Homo sapiens; LS174T cell line, 72 hours incubation
Procedure, shortened: as §1

[15] = test system: LS411N; conditions: Homo sapiens, LS-411N; LS411N cell line, 72 hours incubation
Procedure, shortened: as §1

[16] = test system: LoVo; conditions: Homo sapiens; LoVo cell line, 72 hours incubation
Procedure, shortened: as §1

[17] = test system: MM1.S; conditions: Homo sapiens; MM1.S cell line, 72 hours incubation
Procedure, shortened: as §1

[18] = test system: MV4-11; conditions: Homo sapiens; MV4-11 cell line, 72 hours incubation
Procedure, shortened: as §1

[19] = test system: NCC-IT; conditions: Homo sapiens, NCCIT; NCC-IT cell line, 72 hours incubation
Procedure, shortened: as §1

[20] = test system: OVCAR-3; conditions: Homo sapiens; OVCAR-3 cell line, 72 hours incubation
Procedure, shortened: as §1

[21] = test system: PFSK-1; conditions: Homo sapiens; PFSK-1 cell line, 72 hours incubation
Procedure, shortened: as §1

[22] = test system: RD-ES; conditions: Homo sapiens; RD-ES cell line, 72 hours incubation
Procedure, shortened: as §1

[23] = test system: RL95-2; conditions: Homo sapiens; RL95-2 cell line, 72 hours incubation
Procedure, shortened: as §1

[24] = test system: RL; conditions: Homo sapiens; RL cell line, 72 hours incubation
Procedure, shortened: as §1

[25] = test system: RS4;11; conditions: Homo sapiens; RS4;11 cell line, 72 hours incubation
Procedure, shortened: as §1

[26] = test system: SHP-77; conditions: Homo sapiens, SHP77; SHP-77 cell line, 72 hours incubation
Procedure, shortened: as §1

[27] = test system: SK-BR-3; conditions: Homo sapiens; SK-BR-3 cell line, 72 hours incubation
Procedure, shortened: as §1

[28] = test system: SK-OV-3; conditions: Homo sapiens; SK-OV-3 cell line, 72 hours incubation
Procedure, shortened: as §1

[29] = test system: SUP-T1; conditions: Homo sapiens; SUP-T1 cell line, 72 hours incubation
Procedure, shortened: as §1

[30] = test system: SW837; conditions: Homo sapiens; SW837 cell line, 72 hours incubation
Procedure, shortened: as §1

[31] = test system: TCCSUP; conditions: Homo sapiens, TCC-SUP; TCCSUP cell line, 72 hours incubation
Procedure, shortened: as §1

Structure (SMILES): O=C(c1ccc(Oc2ccccc2)cc1Cl)c1c[nH]c2ncnc(N[C@@H]3CC[C@@H](CO)OC3)c12 [nemtabrutinib]
- IC50 [1]: 5320 nM
- IC50 [2]: 16700 nM
- IC50 [3]: 702 nM
- IC50 [4]: 1130 nM
- IC50 [5]: 1410 nM
- IC50 [6]: 1320 nM
- IC50 [7]: 1320 nM
- IC50 [8]: 178 nM
- IC50 [9]: 4800 nM
- IC50 [10]: 369 nM
- IC50 [11]: 11400 nM
- IC50 [12]: 2110 nM
- IC50 [13]: 1260 nM
- IC50 [14]: 1740 nM
- IC50 [15]: 767 nM
- IC50 [16]: 2360 nM
- IC50 [17]: 5480 nM
- IC50 [18]: 1350 nM
- IC50 [19]: 4620 nM
- IC50 [20]: 578 nM
- IC50 [21]: 11300 nM
- IC50 [22]: 4170 nM
- IC50 [23]: 1180 nM
- IC50 [24]: 4060 nM
- IC50 [25]: 7800 nM
- IC50 [26]: 14600 nM
- IC50 [27]: 1850 nM
- IC50 [28]: 4950 nM
- IC50 [29]: 12100 nM
- IC50 [30]: 3810 nM
- IC50 [31]: 7700 nM
